Measured values reported in US12157730B2, “Heteroaryl derivative, method for producing same, and pharmaceutical composition comprising same as effective component” (VORONOI INC., priority 2019, dated 2024).

target: T1, Ba/F3 cell EGFR Exon20 ins NPH (Homo sapiens, UniProt P00533, INS773NPH); assay: Ba/F3 cell proliferation suppression, EGFR Exon20 ins NPH; format: cell-based; details: GI50 class; Ba/F3 cell line with NPH inserted at Exon20 of EGFR; 72 hours
T1 construct: expressed in transfected cells; host or cells: Ba/F3
Summary of the method: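 Cells were seeded 24 h before dosing and then treated for 72 hours with compound at final concentrations of 0.3 nM to 50 um. Live cells were measured by CellTiter-Glo luminescence, and GI50 values were derived from growth ratio relative to control across three repeats.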

SMILES	Ba/F3 (NPH) Activity
C=CC(=O)Nc1cc(Nc2cc(N3OCC[C@@H]3c3ccc(F)cc3F)ncn2)c(OC)cc1N1CCC(N2C[C@H]3C[C@@H]2CN3C)CC1 [compound 473, N-(5-((6-((R)-3-(2,4-difluorophenyl)isoxazolidine-2-yl)pyrimidine-4-yl)amino)-4-methoxy-2-(4-((1R,4R)-5-methyl-2,5-diazabicyclo[2.2.1]heptane-2-yl)piperidine-1-yl)phenyl)acrylamide]	A (GI50 < 50 nM)
C=CC(=O)Nc1cc(Nc2cc(N3OCC[C@@H]3c3ccc(Cl)c(F)c3)ncn2)c(OC)cc1N1CCC(N2CCC(N(C)C)CC2)CC1 [compound 803, N-(5-((6-((R)-3-(4-chloro-3-fluorophenyl)isoxazolidine-2-yl)pyrimidine-4-yl)amino)-2-(4-(dimethylamino)-[1,4'-bipiperidine]-1'-yl)-4-methoxyphenyl) acrylamide]	A (GI50 < 50 nM)
C=CC(=O)Nc1cc(Nc2cc(N3OCC[C@@H]3c3ccc(F)cc3F)ncn2)c(OC)cc1N1CCN(C2CC2)C[C@@H]1C [compound 474, N-(2-((S)-4-cyclopropyl-2-methylpiperazine-(2,4-1-yl)-5-((6-((R)-3-difluorophenyl)isoxazolidine-2-yl)pyrimidine-4-yl)amino)-4-methoxyphenyl) acrylamide]	A (GI50 < 50 nM)
C=CC(=O)Nc1cc(Nc2cc(N3OCC[C@@H]3c3ccc(F)cc3)ncn2)c(OC)cc1N1CCN(C)CC1 [compound 785, N-(5-((6-((R)-3-(4-fluorophenyl)isoxazolidine-2-yl)pyrimidine-4-yl)amino)-4-methoxy-2-(4-methylpiperazine-1-yl)phenyl)acrylamide]	A (GI50 < 50 nM)
C=CC(=O)Nc1cc(Nc2cc(N3OCC[C@@H]3c3cccc(C(F)(F)F)c3)ncn2)c(OC)cc1N1CC[C@@H](N(C)C)C1 [compound 505, N-(2-((R)-3-(dimethylamino)pyrolidine-1-yl)-4-methoxy-5-((6-((R)-3-(3-(trifluoromethyl)phenyl)isoxazolidine-2-yl)pyrimidine-4-yl)amino)phenyl)acrylamide]	A (GI50 < 50 nM)
C=CC(=O)Nc1cc(Nc2cc(N3OCC[C@@H]3c3cccc(C)c3F)ncn2)c(OC)cc1N1CCC(N2CC[C@H](N(C)C)C2)CC1 [compound 910, N-(2-(4-((S)-3-(dimethylamino)pyrolidine-1-yl)piperidine-1-yl)-5-((6-((R)-3-(2-fluoro-3-methylphenyl)isoxazolidine-2-yl)pyrimidine-4-yl)amino)-4-methoxyphenyl) acrylamide]	A (GI50 < 50 nM)
C=CC(=O)Nc1cc(Nc2cc(N3OCC[C@@H]3c3ccc(F)c(Cl)c3F)ncn2)c(OC)cc1N1CCC(N2C[C@H]3C[C@@H]2CO3)CC1 [compound 635, N-(2-(4-((1R,4R)-2-oxa-5-azabicyclo[2.2.1]heptane-5-yl)piperidine-1-yl)-5-((6-((R)-3-(3-chloro-2,4-difluorophenyl)isoxazolidine-2-yl)pyrimidine-4-yl)amino)-4-methoxyphenyl) acrylamide]	A (GI50 < 50 nM)
C=CC(=O)Nc1cc(Nc2cc(N3OCC[C@@H]3c3cccc(F)c3)ncn2)c(OC)cc1N1CC[C@H](N(C)C)C1 [compound 839, N-(2-((S)-3-(dimethylamino)pyrolidine-1-yl)-5-((6-((R)-3-(3-fluorophenyl)isoxazolidine-2-yl)pyrimidine-4-yl)amino)-4-methoxyphenyl) acrylamide]	A (GI50 < 50 nM)
C=CC(=O)Nc1cc(Nc2cc(N3OCC[C@@H]3c3cccc(C(F)(F)F)c3)ncn2)c(OC)cc1N1CCC(N(C)C)CC1 [compound 451, N-(2-(4-(dimethlamino)piperidine-1-yl)-4-methoxy-5-((6-((R)-3-(3-(trifluoromethyl)phenyl)isoxazolidine-2-yl)pyrimidine-4-yl)amino)phenyl) acrylamide]	A (GI50 < 50 nM)
C#Cc1cccc([C@H]2CCON2c2cc(Nc3cc(NC(=O)C=C)c(N4CCC(N5C[C@@H]6C[C@H]5CO6)CC4)cc3OC)ncn2)c1 [compound 618, N-(2-(4-((1S,4S)-2-oxa-5-azabicyclo[2.2.1]heptane-5-yl)piperidine-1-yl)-5-((6-((R)-3-(3-ethynylphenyl)isoxazolidine-2-yl)pyrimidine-4-yl)amino)-4-methoxyphenyl) acrylamide]	A (GI50 < 50 nM)
C=CC(=O)Nc1cc(Nc2cc(N3OCC[C@@H]3c3cc(F)cc(F)c3)ncn2)c(OC)cc1N1CCC(N2C[C@H](C)N(C3CC3)C[C@H]2C)CC1 [Example 107, N-(2-(4-((2R,5S)-4-cyclopropyl-2,5-dimethylpiperazine-1-yl)piperidine-1-yl)-5-((6-((R)-3-(3,5-difluorophenyl)isoxazolidine-2-yl)pyrimidine-4-yl)amino)-4-methoxyphenyl) acrylamide]	A (GI50 < 50 nM)
C#Cc1cccc([C@H]2CCON2c2cc(Nc3cc(NC(=O)C=C)c(N(C)CCN(C)C)cc3OC)ncn2)c1 [compound 616, N-(2-((2-(dimethylamino)ethyl) (methyl)amino)-5-((6-((R)-3-(3-ethynylphenyl)isoxazolidine-2-yl)pyrimidine-4-yl)amino)-4-methoxyphenyl) acrylamide]	A (GI50 < 50 nM)
C=CC(=O)Nc1cc(Nc2cc(N3OCC[C@@H]3c3cccc(F)c3)ncn2)c(OC)cc1N1CCN(CC)CC1 [Example 246, N-(2-(4-ethylpiperazine-1-yl)-5-((6-((R)-3-(3-fluorophenyl)isoxazolidine-2-yl)pyrimidine-4-yl)amino)-4-methoxyphenyl) acrylamide]	A (GI50 < 50 nM)
C=CC(=O)Nc1cc(Nc2cc(N3OCC[C@@H]3c3ccc(C)nc3)ncn2)c(OC)cc1N1CCC(N2CCN(C(C)C)CC2)CC1 [Example 230, N-(2-(4-(4-isopropylpiperazine-1-yl)piperidine-1-yl)-4-methoxy-5-((6-((R)-3-(6-methylpyridine-3-yl)isoxazolidine-2-yl)pyrimidine-4-yl)amino)phenyl)acrylamide]	B (50 nM ≤ GI50 < 500 nM)
C=CC(=O)Nc1cc(Nc2cc(N3OCC[C@@H]3c3cccc(Cl)c3)ncn2)c(OC)cc1N1CCOCC1 [compound 467, N-(5-((6-((R)-3-(3-chlorophenyl)isoxazolidine-2-yl)pyrimidine-4-yl)amino)-4-methoxy-2-morpholinophenyl) acrylamide]	A (GI50 < 50 nM)
C=CC(=O)Nc1cc(Nc2cc(N3OCC[C@H]3c3c(F)cccc3F)ncn2)c(OC)cc1N1CCC(N2CC[C@@H](N(C)C)C2)CC1 [compound 314, N-(5-((6-((S)-3-(2,6-difluorophenyl)isoxazolidine-2-yl)pyrimidine-4-yl)amino)-2-(4-((R)-3-(dimethylamino)pyrolidine-1-yl)piperidine-1-yl)-4-methoxyphenyl) acrylamide]	C (500 nM ≤ GI50 < 5000 nM)
C=CC(=O)Nc1cc(Nc2cc(N3OCC[C@@H]3Cc3cccc(F)c3C)ncn2)c(OC)cc1N(C)CCN(C)C [compound 1000, N-(2-((2-(dimethylamino)ethyl) (methyl)amino)-5-((6-((S)-3-(3-fluoro-2-methylbenzyl)isoxazolidine-2-yl)pyrimidine-4-yl)amino)-4-methoxyphenyl) acrylamide]	A (GI50 < 50 nM)
C=CC(=O)Nc1cc(Nc2cc(N3OCC[C@@H]3c3ccc(Cl)cc3F)ncn2)c(OC)cc1N1CCC(N2C[C@@H]3C[C@H]2CO3)CC1 [compound 373, N-(2-(4-((1S,4S)-2-oxa-5-azabicyclo[2.2.1]heptane-5-yl)piperidine-1-yl)-5-((6-((R)-3-(4-chloro-2-fluorophenyl)isoxazolidine-2-yl)pyrimidine-4-yl)amino)-4-methoxyphenyl) acrylamide]	A (GI50 < 50 nM)
C=CC(=O)Nc1cc(Nc2cc(N3OCC[C@@H]3Cc3cccc(Cl)c3C)ncn2)c(OC)cc1N1CCC(N2C[C@H]3C[C@@H]2CO3)CC1 [compound 1030, N-(2-(4-((1R,4R)-2-oxa-5-azabicyclo [2.2.1]heptane-5-yl)piperidine-1-yl)-5-((6-((S)-3-(3-chloro-2-methylbenzyl)isoxazolidine-2-yl)pyrimidine-4-yl)amino)-4-methoxyphenyl) acrylamide]	A (GI50 < 50 nM)
C=CC(=O)Nc1cc(Nc2cc(N3OCC[C@@H]3c3ccc4ccccc4c3)ncn2)c(OC)cc1N1CCC(N2CCN(C(C)C)CC2)CC1 [compound 550, N-(2-(4-(4-isopropylpiperazine-1-yl)piperidine-1-yl)-4-methoxy-5-((6-((R)-3-(naphthalene-2-yl)isoxazolidine-2-yl)pyrimidine-4-yl)amino)phenyl)acrylamide]	B (50 nM ≤ GI50 < 500 nM)
C=CC(=O)Nc1cc(Nc2cc(N3OCC[C@@H]3c3ccc(F)cc3F)ncn2)c(OC)cc1N(C)CCN(C)C [compound 350, N-(5-((6-((R)-3-(2,4-difluorophenyl)isoxazolidine-2-yl)pyrimidine-4-yl)amino)-2-((2-(dimethylamino)ethyl)(methyl)amino)-4-methoxyphenyl) acrylamide]	A (GI50 < 50 nM)
C=CC(=O)Nc1cc(Nc2cc(N3OCC[C@@H]3c3cccc(F)c3F)ncn2)c(OC)cc1N1C[C@@H]2CCN(C)[C@@H]2C1 [compound 876, N-(5-((6-((R)-3-(2,3-difluorophenyl)isoxazolidine-2-yl)pyrimidine-4-yl)amino)-4-methoxy-2-((3aS,6aS)-1-methylhexahydropyrrolo [3,4-b]pyrrole-5(1H)-yl)phenyl) acrylamide]	A (GI50 < 50 nM)
C#Cc1cccc([C@H]2CCON2c2cc(Nc3cc(NC(=O)C=C)c(N4CCC(N5C[C@@H](C)O[C@@H](C)C5)CC4)cc3OC)ncn2)c1 [compound 651, N-(2-(4-((2S,6R)-2,6-dimethylmorpholino)piperidine-1-yl)-5-((6-((R)-3-(3-ethynylphenyl)isoxazolidine-2-yl)pyrimidine-4-yl)amino)-4-methoxyphenyl) acrylamide]	A (GI50 < 50 nM)
